Measurements reported in PubChem BioAssay AID2060483 (Molecular Pharmacology Branch, DTP, NCI, 2025).
Where “and” joins values, the source holds several entries; their conditions need not be identical. Equal values may be shown once. One block for each molecule: values may come before it.

System: K24384-001-R-PDC complex spheroids, viability
Test: Anticancer human tumor K24384-001-R-PDC patient-derived pancreatic adenocarcinoma cell line growth inhibition [GQUAD]
Details: for viability, T/C: stronger effect = lower value
Source text: DNA G-quadruplex Stabilizer Agents in Combinations in Complex Spheroids
A high-throughput screen of multi-cell type tumor spheroids was designed to identify active combinations of DNA G-quadruplex stabilizer agents and targeted small molecules. Complex spheroids include a stromal component modeled by human endothelial cells (HUVEC) and fibroblasts modeled by human mesenchymal stem cells (MSCs). The concentration ranges selected for each drug and investigational agent were based upon clinically achievable concentrations if the clinical Cmax of the agent was known.
Compounds. The drugs and investigational agents: pidnarulex (CX-5461; NSC782164), APTO-253 (NSC789042), BRACO-19 (NSC847499), peposertib (NSC802822), ceralasertib (NSC780249), elimusertib (NSC800525), camonsertib (NSC841442), AZD-1390 (NSC803789), olaparib (NSC753686), talazoparib (NSC767125), ART-558 (NSC835418), sotorasib (NSC818433), MRTX-1133 (NSC836407), SN-38 (NSC673596), topotecan (NSC609699), etoposide (NSC141540), doxorubicin (NSC123127), gemcitabine (NSC613327), 5-fluorouracil (NSC19893), paclitaxel (NSC125973), vemurafenib (NSC761431), panobinostat (NSC761190), R-306465 (JNJ-16241199; NSC773264), adavosertib (NSC754352), TP-3654 (NSC805149), carboplatin (NSC241240), KSQ-4279 (NSC840948), and staurosporine (NSC755774) were obtained from the National Cancer Institute (NCI) Developmental Therapeutics Program Chemical Repository (34). The FDA-approved anticancer drug set is available from the NCI Developmental Therapeutics Program. […] The stock solutions were prepared in dimethyl sulfoxide (DMSO, Sigma-Aldrich, St. Louis, MO, cat. D2650) at 800-fold the tested concentration and stored at -70 degrees C prior to their use. All drugs and investigational agents were tested over a range starting from a high concentration at or near the clinical Cmax and decreasing in half-log increments. If the clinical Cmax for an agent had not been determined, the highest concentration tested was 10 microM.
2.3 Cell Culture. All cells were maintained in an incubator at 37 degrees C and 5% CO2 with 95% humidity. The PDC lines were cultured according to standard operating procedures established by the NCI PDMR. All PDCs were thawed and cultured in Matrigel-coated flasks prepared with a working solution of 1X Ham's F-12 nutrient mix, without supplementation (Invitrogen, cat. 11765054), 100 U/mL penicillin-streptomycin (Invitrogen, cat. 15140122), and 2.5% Matrigel (Corning Inc., cat. 354248) for the first three passages. The 857933-349-R-J2-PDC line was cultured in 6C/Colon 1B media, which includes advanced DMEM/F-12 (Thermo Fisher Scientific, cat. 12634028), 10 mM HEPES (Thermo Fisher Scientific, cat. 15630080), 1X GlutaMAX supplement (Thermo Fisher Scientific, cat. 35050061), 0.1 mg/mL primocin (InvivoGen, cat. ant-pm-2), 10% defined fetal bovine serum, heat inactivated (HyClone Laboratories Inc., cat. SH30070.03HI), 50% L-WRN conditioned media (ATCC, cat. CRL-3276), 1.25 mM N-Acetyl-L-cysteine (Sigma-Aldrich, cat. A9165), 10 mM nicotinamide (Sigma-Aldrich, cat. N0636), 1X B-27 supplement (Thermo Fisher Scientific, cat. 17504044), 1X N-2 supplement (Thermo Fisher Scientific, cat. 17502048), 10 microM Y-27632 dihydrochloride (Tocris Bioscience, cat. 1254), and 50 ng/mL human EGF recombinant protein (Thermo Fisher Scientific, cat. PHG0311). The 485176-168-R4-J1-PDC line was cultured in Panc media, which includes all 6C/Colon 1B media components plus 100 ng/mL human FGF-10 (Thermo Fisher Scientific, cat. 100-26), 500 nM SB-431542 (Selleckchem, cat. S1067), and gastrin (Tocris, cat. 3006).
[…]

[1] = compound alone, run of 02/26/2024
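Also: spheroids exposed to compounds for seven days.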

Structure (SMILES): Cc1[nH]c2ccc(F)cc2c1-c1nc2c3cccnc3c3ncccc3c2[nH]1
viability, T/C (compound 0.0316 µM): 109% [middle of 12 runs]
viability, T/C (compound 0.1 µM): 102% [middle of 12 runs]
viability, T/C (compound 0.316 µM): 99% [middle of 12 runs]
viability, T/C (compound 3.16 µM): 65.3% [middle of 12 runs]
IC50 (compound alone, run of 02/20/2024): > 10 µM and 9.08 µM
IC50 [1]: > 10 µM

Structure (SMILES): O=C(c1cc(Cc2n[nH]c(=O)c3ccccc23)ccc1F)N1CCN(C(=O)C2CC2)CC1 + Cc1[nH]c2ccc(F)cc2c1-c1nc2c3cccnc3c3ncccc3c2[nH]1
IC50 (curve of first compound, second compound 0.0316 µM): > 10 µM
IC50 (curve of first compound, second compound 0.1 µM): > 10 µM
IC50 (curve of first compound, second compound 0.316 µM): > 10 µM
IC50 (curve of first compound, second compound 1 µM): > 10 µM
IC50 (curve of first compound, second compound 3.16 µM): > 10 µM
IC50 (curve of first compound, second compound 10 µM): > 10 µM
viability, T/C (second compound 0.0316 µM, first compound 0.0316 µM): 101%
viability, T/C (second compound 0.0316 µM, first compound 0.1 µM): 94%
viability, T/C (second compound 0.0316 µM, first compound 0.316 µM): 99.6%
viability, T/C (second compound 0.0316 µM, first compound 1 µM): 94.3%
viability, T/C (second compound 0.0316 µM, first compound 3.16 µM): 84.4%
viability, T/C (second compound 0.0316 µM, first compound 10 µM): 93.1%
viability, T/C (second compound 0.1 µM, first compound 0.0316 µM): 103%
viability, T/C (second compound 0.1 µM, first compound 0.1 µM): 104%
viability, T/C (second compound 0.1 µM, first compound 0.316 µM): 147%
viability, T/C (second compound 0.1 µM, first compound 1 µM): 98.7%
viability, T/C (second compound 0.1 µM, first compound 3.16 µM): 89.8%
viability, T/C (second compound 0.1 µM, first compound 10 µM): 83.9%
viability, T/C (second compound 0.316 µM, first compound 0.0316 µM): 96.8%
viability, T/C (second compound 0.316 µM, first compound 0.1 µM): 97.4%
viability, T/C (second compound 0.316 µM, first compound 0.316 µM): 95.7%
viability, T/C (second compound 0.316 µM, first compound 1 µM): 85.7%
viability, T/C (second compound 0.316 µM, first compound 3.16 µM): 82.3%
viability, T/C (second compound 0.316 µM, first compound 10 µM): 91.1%
viability, T/C (second compound 1 µM, first compound 0.0316 µM): 78.1%
viability, T/C (second compound 1 µM, first compound 0.1 µM): 88%
viability, T/C (second compound 1 µM, first compound 0.316 µM): 90.5%
viability, T/C (second compound 1 µM, first compound 1 µM): 87.5%
viability, T/C (second compound 1 µM, first compound 3.16 µM): 89%
viability, T/C (second compound 1 µM, first compound 10 µM): 69.7%
viability, T/C (second compound 3.16 µM, first compound 0.0316 µM): 82.9%
viability, T/C (second compound 3.16 µM, first compound 0.1 µM): 78.1%
viability, T/C (second compound 3.16 µM, first compound 0.316 µM): 64.3%
viability, T/C (second compound 3.16 µM, first compound 1 µM): 77.9%
viability, T/C (second compound 3.16 µM, first compound 3.16 µM): 82%
viability, T/C (second compound 3.16 µM, first compound 10 µM): 67.3%
viability, T/C (second compound 10 µM, first compound 0.0316 µM): 69.7%
viability, T/C (second compound 10 µM, first compound 0.1 µM): 70.7%
viability, T/C (second compound 10 µM, first compound 0.316 µM): 62.5%
viability, T/C (second compound 10 µM, first compound 1 µM): 69%
viability, T/C (second compound 10 µM, first compound 3.16 µM): 74.5%
viability, T/C (second compound 10 µM, first compound 10 µM): 56.1%

Structure (SMILES): COc1cc(C2c3cc4c(cc3C(OC3OC5COC(C)OC5C(O)C3O)C3COC(=O)C23)OCO4)cc(OC)c1O (stereo unspecified)
viability, T/C (compound 0.0316 µM): 103% and 98.4% and 102%
viability, T/C (compound 0.1 µM): 98% (2×) and 98.4%
viability, T/C (compound 0.316 µM): 75.9% and 85.9% and 71.3%
viability, T/C (compound 1 µM): 48.9% and 52.9% and 48.6%
viability, T/C (compound 3.16 µM): 37.1% and 41.1% and 35.2%
viability, T/C (compound 10 µM): 30.8% and 35.4% and 31.2%
IC50 (curve of compound): 0.964 µM and 1.32 µM and 0.884 µM

Now from value to molecule, other results behind:

IC50 [1]: > 10 µM
Structure (SMILES): CN(C)c1ccc(Nc2c3ccc(NC(=O)CCN4CCCC4)cc3nc3cc(NC(=O)CCN4CCCC4)ccc23)cc1
viability, T/C (compound 0.0316 µM): 101% [middle of 12 runs]
viability, T/C (compound 0.1 µM): 100% [middle of 12 runs]
viability, T/C (compound 0.316 µM): 101% [middle of 12 runs]

IC50 (curve of compound): 0.116 µM and 0.126 µM and 0.101 µM
Structure (SMILES): Cc1[nH]c2ccccc2c1CCNCc1ccc(/C=C/C(=O)NO)cc1
viability, T/C (compound 0.000999 µM): 103% and 120% and 118%
viability, T/C (compound 0.00316 µM): 96.8% and 103% and 92.5%
viability, T/C (compound 0.00999 µM): 92.9% and 110% and 98.1%
viability, T/C (compound 0.0316 µM): 90% and 89.4% and 90.5%
viability, T/C (compound 0.0999 µM): 56.2% and 61% and 48.7%
viability, T/C (compound 0.316 µM): 6.17% and 6.7% and 5.53%
